Where two headings read alike, the source gives them in different places. Bounds are passed on as bounds.

The values below come from patent US10323000B2, “Indole derivatives and their use in neurodegenerative diseases” (priority 2014, dated 2019).

Test [1] has as its target human P2X7 receptor (Homo sapiens (Human), UniProt Q99572). Description: Pore permeation assay (YO PRO dye uptake). The format is cell-based.
In test [2] the target is P2X7 (IL-1β release from THP-1 cells) (Homo sapiens (Human), UniProt Q99572). The test is described as follows: IL-1β release assay. The test is classed as cell-based. In short, it runs like this: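 THP-1 cells were differentiated with PMA 0.5 μM and primed 4 h with LPS 10 ng/ml. They were then pre-incubated 20 min with compound at 37° C and stimulated 30 min with BzATP 0.8 mM. Mature IL-1β released into the supernatant was quantified by sandwich ELISA.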

[3] abbreviates: HEK293 transfected with human P2X7, BzATP 10 uM, YO PRO dye uptake, read-out: hP2X7 IC50.
Where [4] appears, read: THP-1 cells, LPS primed, 0.8 mM BzATP, mature IL-1β by sandwich ELISA, read-out: hTHP-1/IL-ib IC50.

Sequence of P2X7 (IL-1β release from THP-1 cells) (Q99572 whole entry): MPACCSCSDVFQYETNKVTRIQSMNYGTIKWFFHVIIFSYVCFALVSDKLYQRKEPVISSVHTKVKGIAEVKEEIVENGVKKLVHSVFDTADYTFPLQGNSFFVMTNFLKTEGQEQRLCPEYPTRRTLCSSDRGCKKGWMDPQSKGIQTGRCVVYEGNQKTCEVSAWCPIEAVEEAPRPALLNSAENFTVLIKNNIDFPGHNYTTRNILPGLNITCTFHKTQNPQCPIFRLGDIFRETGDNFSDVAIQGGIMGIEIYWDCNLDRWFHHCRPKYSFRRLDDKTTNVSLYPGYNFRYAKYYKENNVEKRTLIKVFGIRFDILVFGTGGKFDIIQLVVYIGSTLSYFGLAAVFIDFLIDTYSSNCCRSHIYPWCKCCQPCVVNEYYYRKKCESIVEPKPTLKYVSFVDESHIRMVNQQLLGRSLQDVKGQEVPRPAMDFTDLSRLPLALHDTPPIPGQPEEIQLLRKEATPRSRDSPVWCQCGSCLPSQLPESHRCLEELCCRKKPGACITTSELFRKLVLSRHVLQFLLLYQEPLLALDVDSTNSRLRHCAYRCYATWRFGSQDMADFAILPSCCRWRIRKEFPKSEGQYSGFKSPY
Sequence of human P2X7 receptor (Q99572 whole entry): as above

With `O=C(NCC1CCC(F)(F)CC1)c1cn(CCO)c2cccc(C(F)(F)F)c12` [Compound 198, N-((4,4-difluorocyclohexyl)methyl)-1-(2-hydroxyethyl)-4-(trifluoromethyl)-1H-indole-3-carboxamide], the IC50 lay in the range of 101 to 500 nM in test [1] and 10 to 100 nM in test [2].

As to `O=C1NC[C@H](Cn2cc(C(=O)NCC3CCC(F)(F)CC3)c3c(Cl)cccc32)O1` [Compound 126, (R)-4-chloro-N-((4,4-difluorocyclohexyl)methyl)-1-((2-oxooxazolidin-5-yl)methyl)-1H-indole-3-carboxamide], the IC50 in test [1] and in test [2] was 10 to 100 nM throughout.

Regarding `C[C@H]1CCC[C@@](O)(CNC(=O)c2cn(C3COC3)c3cccc(Cl)c23)C1` [Compound 90, 4-chloro-N-(((1S,3S)-1-hydroxy-3-methylcyclohexyl)methyl)-1-(oxetan-3-yl)-1H-indole-3-carboxamide], the IC50 in test [1] (setting [3]) was < 10 nM; in test [2], 10 to 100 nM.

Consider `O=C(NCC1CCC(F)(F)CC1)c1cn(C2CN(C3CC3)C2)c2cccc(Cl)c12` [Compound 171, 4-chloro-1-(1-cyclopropylazetidin-3-yl)-N-((4,4-difluorocyclohexyl)methyl)-1H-indole-3-carboxamide], for which the IC50 in test [1] fell in the range of 101 to 500 nM; in test [2] it was 500 to 999 nM.

`O=C(NC[C@H]1CCCC[C@H]1O)c1cn(C2COC2)c2cccc(Cl)c12` [Compound 88, cis-4-Chloro-1-oxetan-3-yl-1H-indole-3-carboxylic acid ((1R,2R)-2-hydroxy-cyclohexylmethyl)-amide]: the IC50 in test [1] is 101 to 500 nM; in test [2] (setting [4]), > 1000 nM.

As for `O=C(NCC1CCC(F)(F)CC1)c1cn(C[C@@H]2CCN2)c2cccc(Cl)c12` [Compound 122, (S)-1-(azetidin-2-ylmethyl)-4-chloro-N-((4,4-difluorocyclohexyl)methyl)-1H-indole-3-carboxamide], the IC50 in test [1] and in test [2] was 10 to 100 nM throughout.

For `O=C(NCC1CCC(F)(F)CC1)c1cn(CC2CCCN2C2CC2)c2cccc(Cl)c12` (stereo not drawn) [Compound 197, 4-chloro-1-((1-cyclopropylpyrrolidin-2-yl)methyl)-N-((4,4-difluorocyclohexyl)methyl)-1H-indole-3-carboxamide], the IC50 in test [1] and in test [2] was 10 to 100 nM each time.

In the case of `O=C(NCC(c1ccccc1)C1CCCC1)c1cn(C2COC2)c2cccc(Cl)c12` (stereo not drawn) [Compound 70, 4-Chloro-1-oxetan-3-yl-1H-indole-3-carboxylic acid (2-cyclopentyl-2-phenyl-ethyl)-amide], the IC50 in test [1] was 10 to 100 nM; in test [2], 101 to 500 nM.

Regarding `O=C(NCCC1CCCC1)c1cn(C2COC2)c2cccc(Cl)c12` [Compound 82, 4-Chloro-1-oxetan-3-yl-1H-indole-3-carboxylic acid (2-cyclopentyl-ethyl)-amide], the IC50 in test [1] (setting [3]) is < 10 nM; in test [2] it was 101 to 500 nM.

For the compound `O=C(NCC1CCC(F)(F)CC1)c1cn(CC2CCCCN2)c2cccc(Cl)c12` (stereo not drawn) [Compound 173, 4-chloro-N-((4,4-difluorocyclohexyl)methyl)-1-(piperidin-2-ylmethyl)-1H-indole-3-carboxamide], the IC50 in test [1] (setting [3]) and in test [2] (setting [4]) was < 10 nM throughout.

Regarding `O=C(NCC1CCCC(C(F)(F)F)C1)c1cn(C2CCOC2)c2cccc(Cl)c12` (stereo not drawn) [Compound 112, 4-Chloro-1-(tetrahydro-furan-3-yl)-1H-indole-3-carboxylic acid (3-trifluoromethyl-cyclohexylmethyl)-amide], the figures for the IC50 in test [1] and in test [2] were 10 to 100 nM and 101 to 500 nM, respectively.

Consider `O=C(NCC1(O)CCC(F)(F)CC1)c1cn(C[C@H]2CCCO2)c2cccc(Cl)c12` [Compound 131, (R)-4-chloro-N-((4,4-difluoro-1-hydroxycyclohexyl)methyl)-1-((tetrahydrofuran-2-yl)methyl)-1H-indole-3-carboxamide], for which the IC50 in test [1] and in test [2] was 10 to 100 nM throughout.

On to `CC1CC(CNC(=O)c2cn(CC3CCCN3)c3cccc(Cl)c23)CC(F)(F)C1` (stereo not drawn) [Compound 157, 4-chloro-N-((3,3-difluoro-5-methylcyclohexyl)methyl)-1-(pyrrolidin-2-ylmethyl)-1H-indole-3-carboxamide], for which the values for the IC50 in test [1] and in test [2] (setting [4]) were 10 to 100 nM and < 10 nM, respectively.

On to `CC1CC(O)(CNC(=O)c2cn(C3CCOC3)c3cccc(Cl)c23)CCC1(F)F` (stereo not drawn) [Compound 106, 4-Chloro-1-(tetrahydro-furan-3-yl)-1H-indole-3-carboxylic acid (4,4-difluoro-1-hydroxy-3-methyl-cyclohexylmethyl)-amide], for which the results for the IC50 in test [1] and in test [2] were 500 to 999 nM and 101 to 500 nM, respectively.

`O=C(NCC1(O)CCCC(F)(F)C1)c1cn(C2COC2)c2cccc(Cl)c12` (racemic) [Compound 86, 4-chloro-N-((3,3-difluoro-1-hydroxycyclohexyl)methyl)-1-(oxetan-3-yl)-1H-indole-3-carboxamide]: the IC50 in test [1] and in test [2] was 10 to 100 nM in each case.

Regarding `CN1CC[C@H]1Cn1cc(C(=O)NCC2CCC(F)(F)CC2)c2c(Cl)cccc21` [Compound 151, (S)-4-chloro-N-((4,4-difluorocyclohexyl)methyl)-1-((1-methylazetidin-2-yl)methyl)-1H-indole-3-carboxamide], the IC50 in test [1] and in test [2] was 10 to 100 nM in each case.

Turning to `O=C(NCC1CCCCC1)c1cn(C2COC2)c2cccc(Cl)c12` [Compound 48, 4-chloro-N-(cyclohexylmethyl)-1-(oxetan-3-yl)-1H-indole-3-carboxamide], the IC50 in test [1] and in test [2] was 101 to 500 nM throughout.

For the compound `COCCn1cc(C(=O)NCC2(O)CCCCC2)c2c(Cl)cccc21` [Compound 19, 4-Chloro-1-(2-methoxy-ethyl)-1H-indole-3-carboxylic acid (1-hydroxy-cyclohexyl methyl)-amide], the IC50 in test [1] lay within 10 to 100 nM; in test [2], 101 to 500 nM.

On to `O=C(NCC1(O)CCCC(F)(F)C1)c1cn(CCN2CCCC2)c2cccc(Cl)c12` (stereo not drawn) [Compound 178, 4-chloro-N-((3,3-difluoro-1-hydroxycyclohexyl)methyl)-1-(2-(pyrrolidin-1-yl)ethyl)-1H-indole-3-carboxamide], for which the IC50 in test [1] and in test [2] was 10 to 100 nM in each case.

Turning to `COCCn1cc(C(=O)NCC2(c3ccccc3)CCCCC2)c2c(Cl)cccc21` [Compound 39, 4-chloro-1-(2-methoxyethyl)-N-((1-phenylcyclohexyl)methyl)-1H-indole-3-carboxamide], the values for the IC50 in test [1] and in test [2] were 10 to 100 nM and 101 to 500 nM, respectively.

In the case of `O=C(NCC1(O)CCCC1)c1cn(C2COC2)c2cccc(Cl)c12` [Compound 81, 4-Chloro-1-oxetan-3-yl-1H-indole-3-carboxylic acid (1-hydroxy-cyclopentylmethyl)-amide], the IC50 in test [1] lay within 101 to 500 nM; in test [2] it was 500 to 999 nM.

For the compound `O=C(NCC1(O)CCCC(C(F)(F)F)C1)c1cn(C2CCOC2)c2cccc(Cl)c12` (stereo not drawn) [Compound 100, 4-chloro-N-((1-hydroxy-3-(trifluoromethyl)cyclohexyl)methyl)-1-(tetrahydrofuran-3-yl)-1H-indole-3-carboxamide], the IC50 in test [1] (setting [3]) and in test [2] (setting [4]) was > 1000 nM throughout.

Consider `CC1CC(F)(F)CC(O)(CNC(=O)c2cn(CC(F)(F)F)c3cccc(Cl)c23)C1` (stereo not drawn) [Compound 1, 4-chloro-N-((3,3-difluoro-1-hydroxy-5-methylcyclohexyl)methyl)-1-(2,2,2-trifluoroethyl)-1H-indole-3-carboxamide], for which the IC50 is 101 to 500 nM in test [1] (setting [3]) and > 1000 nM in test [2] (setting [4]).

`O=C(NC[C@@]1(O)CCCC(F)(F)C1)c1cn(CCN2CCCC2=O)c2cccc(Cl)c12` [Compound 186, (R)-4-chloro-N-((3,3-difluoro-1-hydroxycyclohexyl)methyl)-1-(2-(2-oxopyrrolidin-1-yl)ethyl)-1H-indole-3-carboxamide]: the IC50 in test [1] (setting [3]) and in test [2] (setting [4]) was > 1000 nM throughout.

For the compound `O=C(NCC1CCC(F)(F)CC1)c1cn(CC2CCOC2)c2cccc(Cl)c12` (stereo not drawn) [Compound 148, 4-chloro-N-((4,4-difluorocyclohexyl)methyl)-1-((tetrahydrofuran-3-yl)methyl)-1H-indole-3-carboxamide], the IC50 in test [1] and in test [2] was 10 to 100 nM each time.

For the compound `CN1CC(n2cc(C(=O)NCC3CCC(F)(F)CC3)c3c(Cl)cccc32)C1` [Compound 119, 4-chloro-N-((4,4-difluorocyclohexyl)methyl)-1-(1-methylazetidin-3-yl)-1H-indole-3-carboxamide], the IC50 in test [1] and in test [2] was 101 to 500 nM each time.

With `O=C(NCC1CCC(F)(F)CC1)c1cn(CC2CCCO2)c2cccc(Cl)c12` (stereo not drawn) [Compound 144, 4-chloro-N-((4,4-difluorocyclohexyl)methyl)-1-((tetrahydrofuran-2-yl)methyl)-1H-indole-3-carboxamide], the IC50 in test [1] lay within 10 to 100 nM; in test [2] it was 101 to 500 nM.

For the compound `O=C(NCC1(O)CCCC(F)(F)C1)c1cn(CC2CCNC2)c2cccc(Cl)c12` (stereo not drawn) [Compound 159, 4-chloro-N-((3,3-difluoro-1-hydroxycyclohexyl)methyl)-1-(pyrrolidin-3-ylmethyl)-1H-indole-3-carboxamide], the IC50 in test [1] was in the range of 10 to 100 nM; in test [2], 101 to 500 nM.

As to `CCC1CCCC(O)(CNC(=O)c2cn(CCOC)c3cccc(Cl)c23)C1` (stereo not drawn) [Compound 22, 4-chloro-N-((3-ethyl-1-hydroxycyclohexyl)methyl)-1-(2-methoxyethyl)-1H-indole-3-carboxamide], the IC50 was 101 to 500 nM in test [1] and > 1000 nM in test [2] (setting [4]).

`CCC1CCCC(O)(CNC(=O)c2cn(CC3CCCO3)c3cccc(Cl)c23)C1` (stereo not drawn) [Compound 137, 4-chloro-N-((3-ethyl-1-hydroxycyclohexyl)methyl)-1-((tetrahydrofuran-2-yl)methyl)-1H-indole-3-carboxamide]: the IC50 in test [1] is 101 to 500 nM; in test [2] (setting [4]) it was > 1000 nM.
